Assay results as given in patent publication US8703428B2, “Single-cell label-free assay” (Corning Incorporated, priority 2007, dated 2014).

Molecular target: β2-adrenergic receptor (β2AR) (Homo sapiens, UniProt P07550)
Experimental: For kinetic assays, the cells were washed with HBSS (Hanks Balanced Salt Solution with 20 mM HEPES) buffer.

Sequence of β2-adrenergic receptor (β2AR) (P07550 whole entry): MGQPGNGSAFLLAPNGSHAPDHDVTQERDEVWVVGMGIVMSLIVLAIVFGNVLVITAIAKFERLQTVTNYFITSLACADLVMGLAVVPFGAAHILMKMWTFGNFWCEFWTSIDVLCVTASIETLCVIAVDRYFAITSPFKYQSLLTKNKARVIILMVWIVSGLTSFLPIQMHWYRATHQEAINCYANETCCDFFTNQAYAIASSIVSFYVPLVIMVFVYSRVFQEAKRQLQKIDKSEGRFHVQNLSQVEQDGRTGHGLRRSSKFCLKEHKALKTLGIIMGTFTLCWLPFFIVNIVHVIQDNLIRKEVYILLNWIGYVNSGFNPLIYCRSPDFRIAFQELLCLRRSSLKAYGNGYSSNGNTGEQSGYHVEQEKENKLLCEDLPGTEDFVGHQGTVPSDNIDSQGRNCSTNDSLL

CNC[C@H](O)c1ccc(O)c(O)c1 [epinephrine]
epinephrine-induced DMR signal (phases) (A431 cells): a small N-DMR, followed by a significant P-DMR event | epinephrine-induced DMR signal, dose dependence (A431 cells): dose-dependent DMR signal | distribution of DMR signals (P-DMR amplitude, transition time) (quiescent A431 cells, about 100% confluency, 2 nM epinephrine, pixel level): relatively tight distribution and are relatively homogenous
